The assay relates to H. pylori clinical isolate 1735 (HP-1735). Put plainly: Antibacterial sensitivity / zone of growth inhibition by well/disc diffusion method. The note with it: for zone of growth inhibition: clinical isolate 1735; for Antibiotic susceptibility (disc diffusion): strain HP-1735. The class given is cell-based, Helicobacter pylori. For orientation: A growth-free zone around the sample is the usual read-out of agar diffusion tests.

Where [1] appears, read: antibiotic concentration 30 µg/disk.

`CC1(C)S[C@@H]2[C@H](NC(=O)[C@H](N)c3ccc(O)cc3)C(=O)N2[C@H]1C(=O)O` [AMO, Amoxicillin]: the “zone of growth inhibition” value under setting [1] came to 50 mm. The “Antibiotic susceptibility (disc diffusion)” value (amoxicillin criterion) is “sensitive”.

As to `CC[C@H]1OC(=O)[C@H](C)[C@@H](O[C@H]2C[C@@](C)(OC)[C@@H](O)[C@H](C)O2)[C@H](C)[C@@H](O[C@@H]2O[C@H](C)C[C@H](N(C)C)[C@H]2O)[C@](C)(OC)C[C@@H](C)C(=O)[C@H](C)[C@@H](O)[C@]1(C)O` [CLA, Clarithromycin], the “zone of growth inhibition compared with dietary antibacterial composition” value (H. pylori clinical isolate 1735) was “less zone of growth inhibition”. Where the note is “antibiotic concentration 15 µg/disk”, the “zone of growth inhibition” value is 8 mm. The “Antibiotic susceptibility (disc diffusion)” value (clarithromycin and tetracycline criterion) is “resistant (≦30 mm for clarithromycin and tetracycline)”.

Regarding `CN(C)[C@@H]1C(O)=C(C(N)=O)C(=O)[C@@]2(O)C(O)=C3C(=O)c4c(O)cccc4[C@@](C)(O)[C@H]3C[C@@H]12` [TET, Tetracycline], the “zone of growth inhibition” value under setting [1] was determined as 45 mm.

The values are drawn from patent US20090175842A1, “DIETARY ANTI-BACTERIAL COMPOSITIONS” (priority 2006, published 2009).
